Laboratory results reported in US11000510B2, “Methods of using anti-CD79b immunoconjugates” (Genentech, Inc., priority 2014, dated 2021).

Tests used:
TMD8 (ABC-DLBCL) = assay: Combination efficacy in tumor xenograft model of TMD8 (Example 5); settings: ADC 2 mg/kg iv once; GA101 1 mg/kg ip qwx3; lenalidomide 20 mg/kg po (qdx5)x3
Description: When the xenograft tumors reached desired volume, animals were randomized and received treatments (Day 0 of the study). There were seven treatment groups (1) vehicle, (2) GA101, (3) anti-CD79b-MC-vc-PAB-MMAE, (4) lenalidomide, (5) GA101+anti-CD79b-MC-vc-PAB-MMAE, (6) GA101+lenalidomide, and (7) GA101+lenalidomide+anti-CD79b-MC-vc-PAB-MMAE. CD79b-MC-vc-PAB-MMAE ADC was dosed once intravenously at 2 mg/kg, iv, once. GA101 dosed 1 mg/kg, ip, qwx3. Lenalidomide was administered at 20 mg/kg, po, (qdx5)×3.
As described above, tumors were measured 1-2 times a week throughout the study using UltraCal-IV calipers and tumor volume was calculated using following formula: tumor volume (mm^3)=0.5a×b^2, wherein a and b are the long and short diameters of the tumor, respectively.

[1] = test system: activated B-cell-like (ABC) subtype; settings: Br J Haematol 2013 Zhang et al.; cited from earlier work
non-ABC-DLBCL cells = settings: Br J Haematol 2013 Zhang et al.; cited from earlier work
WSU-DLCL2 (DLBCL) = assay: Combination efficacy in tumor xenograft model of WSU-DLCL2 (Example 6); format: in vivo, C.B-17 SCID mice; settings: ADC 2 mg/kg iv once; GA101 30 mg/kg ip once; GDC-199 100 mg/kg po qdx21; GDC-032 10 mg/kg po qdx21; rituximab 30 mg/kg ip once
Description: GA101 dosed 30 mg/kg, ip, once. Bcl2 inhibitor, GDC-199, was dosed at 100 mg/kg, po, qdx21. PI3K inhibitor, GDC-032 was dosed at 10 mg/kg, po, qdx21.

[2] = test system: Granta-519 human mantle-cell lymphoma; assay: Combination efficacy in tumor xenograft model of Granta-519 (Example 3); format: in vivo; settings: ADC 1 mg/kg iv once; ABT-199 100 mg/kg orally once a day for 21 days
Excerpt: To appropriately analyze the repeated measurement of tumor volumes from the same animals over time, a mixed modeling approach was used (Pinheiro J, et al. nlme: linear and nonlinear mixed effects models. 2009; R package, version 3.1-96). This approach addresses both repeated measurements and modest dropout rates due to non-treatment related removal of animals before the study end. Cubic regression splines were used to fit a non-linear profile to the time courses of log2 tumor volume at each dose level. These non-linear profiles were then related to dose within the mixed model. The results were plotted as fitted tumor volume of each group over time.

Row | Compound | anti-tumor efficacy (tumor volume, FIG. 3B) (TMD8 (ABC-DLBCL)) | growth suppression of ABC subtype [1] | effect on non-ABC-DLBCL cells (non-ABC-DLBCL cells) | effect on tumor growth (tumor volume, FIG. 4) (WSU-DLCL2 (DLBCL)) | anti-tumor activity (fitted tumor volume over time, FIG. 2) [2]
1 | Nc1cccc2c1CN(C1CCC(=O)NC1=O)C2=O (racemic) [lenalidomide, (RS)-3-(4-Amino-1-oxo 1,3-dihydro-2H-isoindol-2-yl)piperidine-2,6-dione] | little efficacy | preferentially suppresses the growth | minimal effect |  | 
2 | CC1(C)CCC(CN2CCN(c3ccc(C(=O)NS(=O)(=O)c4ccc(NCC5CCOCC5)c([N+](=O)[O-])c4)c(Oc4cnc5[nH]ccc5c4)c3)CC2)=C(c2ccc(Cl)cc2)C1 [ABT-199, 4-(4-{[2-(4-chlorophenyl)-4,4-dimethylcyclohex-1-en-1-yl]methyl}piperazin-1-yl)-N-({3-nitro-4-[(tetrahydro-2H-pyran-4-ylmethyl)amino]phenyl}sulfonyl)-2-(1H-pyrrolo[2,3-b]pyridin-5-yloxy)benzamide] |  |  |  | little effect on the tumor growth | did not result in anti-tumor activity
3 | Cc1nc(-c2cn3c(n2)-c2ccc(-c4cnn(C(C)(C)C(N)=O)c4)cc2OCC3)n(C(C)C)n1 [GDC-0032] |  |  |  | little effect on the tumor growth | 
4 | GA101: anti-CD20 antibody; obinutuzumab is synonymous for GA101 or RO5072759; humanized B-Ly1 type II antibody |  |  |  | little effect on the tumor growth | 
